Laboratory results: ChEMBL document CHEMBL5244272 (Eur J Med Chem, 2021)
pEC50, pIC50: −log10 of the molar value. ≈ marks a conversion by molar mass, not a printed value.

Experiments:
[1] = system: Plasmodium falciparum; test: Antimalarial activity against Plasmodium falciparum W2; format: functional, organism-based
[2] = system: Plasmodium berghei; test: Antimalarial activity against Plasmodium berghei infected in Swiss mouse at 2 mg/kg/day, po; format: functional
[3] = system: Plasmodium falciparum; test: Antimalarial activity against Plasmodium falciparum 3D7; format: functional, organism-based; details: for pEC50: read-out: EC50
[4] = system: Cytomegalovirus; test: Antiviral activity against HCMV; format: functional, organism-based; details: Human betaherpesvirus 5
[5] = system: Plasmodium falciparum; test: Antimalarial activity against Plasmodium falciparum D6; format: functional, organism-based
[6] = system: Plasmodium falciparum; test: Antimalarial activity against chloroquine-sensitive Plasmodium falciparum HB3; format: functional, organism-based
[7] = system: Plasmodium falciparum; test: Antimalarial activity against Plasmodium falciparum K1; format: functional, organism-based
[8] = system: Plasmodium falciparum; test: Antimalarial activity against chloroquine-sensitive Plasmodium falciparum NF54; format: functional, organism-based
[9] = system: Plasmodium berghei; test: Antimalarial activity against Plasmodium berghei infected in sc dosed mouse; format: functional; details: Plasmodium berghei
[10] = system: Plasmodium falciparum; test: Antimalarial activity against Plasmodium falciparum Dd2; format: functional, organism-based
[11] = system: Plasmodium falciparum; test: Antimalarial activity against chloroquine sensitive Plasmodium falciparum FCR-3; format: functional, organism-based
[12] = system: Plasmodium berghei; test: Antimalarial activity against Plasmodium berghei N strain infected in mouse at 30 mg/kg, ip administered once daily for 4 days; format: functional; details: time 4 day
[13] = system: Plasmodium falciparum; test: Antimalarial activity against Plasmodium falciparum HB3; format: functional, organism-based
[14] = system: Plasmodium falciparum; test: Antimalarial activity against Plasmodium falciparum SGE2; format: functional, organism-based
[15] = system: Plasmodium falciparum; test: Antimalarial activity against chloroquine resistant Plasmodium falciparum; format: functional, organism-based
[16] = Half life in human; format: ADME
[17] = system: Plasmodium yoelii; test: Antimalarial activity against multidrug resistant Plasmodium yoelii infected in swiss mouse assessed as reduction in parasitaemia at 96 mg/kg, po measured on day 4; format: functional; set-up: scale not given: the % may be the effect or the level left; details: time 4 day
[18] = system: Plasmodium yoelii; test: Antimalarial activity against multidrug resistant Plasmodium yoelii infected in swiss mouse assessed as increase in survival at 96 mg/kg, po after 28 days; format: functional; details: time 28 day
[19] = system: Plasmodium falciparum; test: Antimalarial activity against Plasmodium falciparum NF54; format: functional, organism-based
[20] = system: Plasmodium falciparum; test: Antimalarial activity against late stage Plasmodium falciparum gametocytes; format: functional, organism-based
[21] = system: Plasmodium yoelii; test: Antimalarial activity against Plasmodium yoelii infected in sc dosed mouse; format: functional
[22] = system: Plasmodium berghei; test: Potency index, ratio of artesunate ED90 to test compound ED90 for Plasmodium berghei; format: functional
[23] = system: Plasmodium yoelii; test: Potency index, ratio of artesunate ED90 to test compound ED90 for Plasmodium yoelii; format: functional
[24] = system: Plasmodium falciparum; test: Antimalarial activity against Plasmodium falciparum RKL2; format: functional, organism-based
[25] = system: Plasmodium falciparum; test: Antimalarial activity against Plasmodium falciparum INDO; format: functional, organism-based
[26] = system: Plasmodium falciparum; test: Potency index, ratio of chloroquine IC50 to test compound IC50 for Plasmodium falciparum INDO; format: functional
[27] = Cytotoxicity against HEK293 cells; format: toxicity, cell-based; details: human
[28] = Selectivity index, ratio of IC50 for HEK293 cells to IC50 for Plasmodium falciparum INDO; format: toxicity; details: human, read-out: Ratio IC50
[29] = system: Plasmodium berghei; test: Antimalarial activity against Plasmodium berghei ANKA infected in mouse at 30 mg/kg; format: functional
[30] = system: CCRF-CEM; test: Cytotoxicity against human CCRF-CEM cells; format: functional, cell-based
[31] = system: ADR5000 cell line; test: Cytotoxicity against human CEM/ADR5000 cells; format: functional, cell-based
[32] = system: Plasmodium falciparum; test: Potency index, ratio of artemisinin IC50 to test compound IC50 for Plasmodium falciparum K1; format: functional
[33] = system: Plasmodium falciparum; test: Potency index, ratio of artemisinin IC50 to test compound IC50 for Plasmodium falciparum HB3; format: functional
[34] = system: Plasmodium yoelii; test: Antimalarial activity against multidrug resistant Plasmodium yoelii infected in swiss mouse assessed as reduction in parasitaemia at 96 mg/kg, po; format: functional; set-up: scale not given: the % may be the effect or the level left
[35] = system: Plasmodium yoelii; test: Antimalarial activity against multidrug resistant Plasmodium yoelii infected in swiss mouse assessed as reduction in parasitaemia at 48 mg/kg, po measured on day 4; format: functional; set-up: scale not given: the % may be the effect or the level left; details: time 4 day
[36] = system: Plasmodium yoelii; test: Antimalarial activity against multidrug resistant Plasmodium yoelii infected in swiss mouse assessed as increase in survival at 48 mg/kg, po after 28 days; format: functional; details: time 28 day

CC(C)(N)CNC(=O)O[C@@H]1CCC[C@]2(C1)OOC1(O2)C2CC3CC(C2)CC1C3 (stereo partly drawn)
pIC50 [1]: 8.74
Activity [2]: 100%

C[C@H]1[C@H](OC(=O)CCC(=O)OCCOC(=O)CC(=O)OCCOC(=O)CCC(=O)O[C@@H]2O[C@@H]3O[C@]4(C)CC[C@H]5[C@H](C)CC[C@@H]([C@H]2C)[C@@]35OO4)O[C@@H]2O[C@]3(C)CC[C@H]4[C@H](C)CC[C@@H]1[C@@]24OO3
pEC50 [3]: 8.85
pEC50 [4]: 9.24

C[C@@H]1CC[C@H]2[C@@H](C)C(=O)O[C@@H]3O[C@@]4(C)CC[C@@H]1[C@]32OO4 [ARTEMISININ]
pIC50 [5]: 7.26
pIC50 [6]: 8.52
pEC50 ([7]; read-out: EC50): 8.44
pIC50 [8]: 7.73
ED50 [9]: 3 mg/kg
pIC50 [10]: 7.89
pIC50 [11]: 8.85
Activity [12]: 74.5%
pIC50 [13]: 8.15
pIC50 [14]: 8.05
IC50 [15]: 0.001 mg/cm3
half-life [16]: 2 h

C=C(c1ccccc1)C1COC2(OO1)C1CC3CC(C1)CC2C3 (stereo not drawn)
Activity [17]: 96%
Activity [18]: 80%

C[C@@H]1CC[C@H]2[C@@H](C)C(=O)N(S(=O)(=O)c3cccs3)[C@@H]3O[C@]4(C)CC[C@@H]1[C@@]23OO4
pIC50 [1]: 8.37
pIC50 [7]: 8.20
pIC50 [19]: 8.25
pIC50 [20]: 8.07

C[C@H]1[C@H](Nc2ccc(F)cc2)O[C@@H]2O[C@]3(C)CC[C@H]4[C@H](C)CC[C@@H]1[C@@]24OO3
ED90 [21]: 0.6 mg/kg
IC50 [5]: 0.64 ng/mL
IC50 [1]: 0.64 ng/mL
ED90 [9]: 0.35 mg/kg
Ratio [22]: 13
Ratio [23]: 13

CC1(C)OOC(c2ccccc2)(c2ccccc2)OO1
IC50 [24]: 3910 ng/mL (≈ 14.3 µM)

C=C(c1ccc2c(c1)CCCC2)C1COC2(CCCCC2)OO1 (stereo not drawn)
pIC50 [25]: 7.29
Ratio IC50 [26]: 11
CC50 [27]: 30100 nM
selectivity ratio [28]: 589

FC1CCN(CCOc2ccc(C3CCC4(CC3)OOC3(OO4)C4CC5CC(C4)CC3C5)cc2)CC1 (stereo not drawn)
pIC50 [3]: 8.29
Activity [29]: 99.65%

C[C@H]1[C@H](OC(=O)CCC(=O)Nc2ccc3ncnc(Cc4ccc(Cl)c(Cl)c4)c3c2)O[C@@H]2O[C@]3(C)CC[C@H]4[C@H](C)CC[C@@H]1[C@@]24OO3
pEC50 [3]: 8.85
pEC50 [30]: 5.55
pEC50 [31]: 6.30

COP(=O)(OCC[C@H]1O[C@@H]2O[C@]3(C)CC[C@H]4[C@H](C)CC[C@@H]([C@H]1C)[C@@]24OO3)OCC[C@H]1O[C@@H]2O[C@]3(C)CC[C@H]4[C@H](C)CC[C@@H]([C@H]1C)[C@@]24OO3
Ratio IC50 [32]: >50
Ratio IC50 [33]: >50

C=C(c1ccc(-c2ccccc2)cc1)C1COC2(CCC(Nc3ccccc3)CC2)OO1 (stereo not drawn)
Activity [34]: 100%
Activity [35]: 100%
Activity [36]: 60%
